{"source": "patent US12246026B2", "about": "“Ganaxolone for use in treatment of status epilepticus” (Marinus Pharmaceuticals, Inc., priority 2019, dated 2025)", "key": {"CYP3A4/5": {"system": "CYP3A4/5", "assay": "Metabolism by CYP enzymes", "conditions": "human"}, "[1]": {"system": "pediatric subject with SRSE", "assay": "Emergency IND No. 137,883, IV GNX in pediatric SRSE"}, "[2]": {"assay": "Phase 2 open-label dose range study, safety", "source_text": "Secondary objectives included assessment of adverse events and evaluation of the pharmacokinetics of IV ganaxolone in patients with SE."}, "[3]": {"assay": "Phase 2 Study 1042-SE-2001 open-label group, safety", "type": "in vivo, human", "method": "(§1) As of 22 Mar. 2019, 5 subjects were enrolled into the Study 1042-SE-2001 open-label group under the original protocol that limits daily Captisol exposure at 35 g/day. […] The initial EEG pattern post-infusion initiation was described by study physicians as a “light” burst suppression that was maintained for several hours in all subjects. […] It was observed that when GNX exposure was lowered (20 mg/hr for 2 hours and ending with 10 mg/hr for the remaining 18 hours on Day 1) in order not to exceed this limit, seizure control could not be maintained and seizure activity (but not SE) re-occurred as evidenced by EEG changes. […] Seizure activity relapsed when plasma concentrations of GNX decreased <500 ng/mL in 4 out of 5 subjects.\nSubject 015-101 was a person who presented with focal convulsive SE due to a tumor (Day 1). Recent medical history included convulsive seizures, SE, and Glioblastoma multiform of parietal lobe. Subject was administered levetiracetam for SE and lorazepam, diazepam, dexamethasone, and multiple doses of levetiracetam for seizure control prior to study enrollment. On Day 3, the subject was enrolled in the study and started on IV GNX 30 mg bolus dose plus continuous infusion (85 mg/hr). At the start of dose initiation the subject was alert. […] They were arousable to voice but required continuous stimulation to stay awake or follow commands. They maintained their airway and was able to endorse that the numbness had resolved and reported that they no longer felt twitches. […] The subject had significant direction-changing nystagmus and complained of blurry vision. […] During the next 2 hours the subject remained somnolent and was becoming increasingly restless. As per the protocol, GNX was decreased to 40 mg/hr at 2 hours post dose initiation. Approximately 10 to 15 minutes after the infusion rate was decreased to 40 mg/hr, the subject's arousal improved, they became conversational, and wanted to eat. They had no seizures at this time. Vital signs remained stable. During the GNX infusion, concomitant lacosamide was increased due to increased numbness. […] Once the GNX taper was completed the investigator reported there were no sequelae.\nUnder the protocol amended with the 50 g/day Captisol limit, 1 subject was enrolled in the open-label study as of 26 Mar. 2019. The subject presented with NCSE due to a tumor. The subject failed 3 second-line IV AEDs and qualified for the study based on the study's inclusion/exclusion criteria. Within 3 minutes after starting the IV GNX infusion, the RSE ceased and seizure protection was maintained for the remaining 48 hours of GNX treatment. […] Pharmacokinetic data were unavailable at the time of this report."}, "[4]": {"assay": "Phase 2 Study 1042-SE-2001 open-label group, GNX plasma concentration and PK modeling", "type": "in vivo, human", "method": "These infusion dosing parameters are expected to result in daily doses of ganaxolone of about ≤714 mg/day and Captisol of about ≤50 grams/day. Based on PK modeling, it is predicted that maximum concentrations of ganaxolone should remain within 1,000 ng/mL during infusion, but some variability is expected due to, for example, differences in subjects' weight.\nas §1"}, "subjects with SE": {"system": "subjects with SE", "assay": "Phase 2 Study 1042-SE-2001 open-label group, seizure control by EEG", "type": "in vivo, human", "text": "Example 2 is an ongoing, double-blind, randomized, placebo-controlled Phase 2 study designed to evaluate the safety, tolerability, and efficacy of adjunctive IV GNX in subjects with SE who have failed initial treatment with benzodiazepines and at least one AED. The study consists of a small open-label group to optimize the infusion parameters and provide a preliminary assessment of safety, efficacy, and tolerability of GNX administration, followed by a double-blind group who will be randomized to receive GNX or placebo in a 1:1 ratio. In both the open-label and double-blind groups, the study drug treatment is adjunctive therapy to standard of care, and subjects will receive a study drug bolus dose with a concurrent continuous infusion treatment with the goal of administering a therapeutic dose as quickly as possible to stop the seizures and prevent permanent neurological damage. Specifically, study drug will be added to the standard of care at the time that the first 2nd-line IV AED has failed and the second 2nd-line IV AED is medically indicated during the treatment of SE. Study drug must be administered with the second-line IV AED as close to the dose initiation of the second 2nd-line IV AED as possible, but before the initiation of the third-line IV anesthetic for burst suppression.\nGanaxolone for this study is a proprietary IV formulation solubilized by Captisol® (betadex sulfobutyl ether sodium). The maximum level of Captisol® will not exceed 50 g/per day. Ganaxolone for IV administration will be provided to the site as individual glass vials containing 3 mg/mL of ganaxolone for the open-label group and 5 mg/mL of ganaxolone for the double-blind group. Placebo for double-blind group IV administration will be provided to the site as blinded matching vials containing 0.9% sodium chloride solution.\nTotal adjunctive GNX therapy infusion treatment is planned to be 3 or 5 days (including an 18-hour taper). All subjects will have a 3-minute bolus dose with a continuous infusion at the rate from about 10 mg/hour to about 85 mg/hour or from about 18 mg/hr to 80 mg/hr, and an 18-hour taper. Once study drug administration is started it will be delivered for a full 2 or 4 days (48 or 96 hours) prior to tapering. At the end of second day administration, the decision to administer the study drug for an additional 2 days (i.e., for a total of 4 days) will be made. If in the investigator's medical judgment the subject will continue benefitting from study drug administration, ganaxolone will be administered to the additional 2 days.\nas §1"}, "[5]": {"conditions": "PK modeling data from 5 subjects"}}, "note": "“Also recorded” adds a separate entry of the source.", "data": [{"smiles": "CC(=O)[C@H]1CC[C@H]2[C@@H]3CC[C@H]4C[C@](C)(O)CC[C@]4(C)[C@H]3CC[C@]12C", "note": "[Ganaxolone, 3α-hydroxy-3β-methyl-5α-pregnan-20-one]", "values": [{"measurement": "metabolizing enzymes", "setting": "CYP3A4/5", "result": "metabolized by CYP3A4/5"}, {"measurement": "duration of suppressed EEG background", "setting": "[1]; eIND 137,883", "result": "approximately 2 hours"}, {"measurement": "finding on examination leading to stop of infusion", "setting": "[1]; eIND 137,883", "result": "nonreactive pupils"}, {"measurement": "EEG at the time of GNX bolus infusion", "setting": "[1]; eIND 137,883, concomitant pentobarbital 2.25 mg/kg/hr", "result": "continuous suppressed background"}, {"measurement": "tolerability of GNX infusion", "setting": "[2]; 17 RSE patients", "result": "generally well-tolerated"}, {"measurement": "participants with SAEs (severe sedation) assessed as related to GNX, leading to early discontinuation", "setting": "[2]; concomitant CNS depressant medications", "result": 2, "unit": "participants"}, {"measurement": "safety finding related to GNX", "setting": "[3]; 1 subject, amended protocol, concomitant AEDs", "result": "increased sedation"}, {"measurement": "GNX-related cardiovascular events requiring pharmacological intervention", "setting": "[3]; 5 subjects", "result": "no GNX-related cardiovascular events that required pharmacological intervention were observed"}, {"measurement": "intubation as a direct result of GNX therapy", "setting": "[3]; 5 subjects", "result": "no subjects had to be intubated as a direct result of GNX therapy"}, {"measurement": "adverse observations during infusion", "setting": "[3]; Subject 015-101, 30 mg bolus, 85 mg/hr, listed as GNX", "result": "significant somnolence; also recorded: urinary retention with urgency"}, {"measurement": "GNX exposure associated with seizure relapse", "setting": "[4]; [5]", "result": "< 500", "unit": "ng/mL"}, {"measurement": "GNX exposure level associated with rapid and complete SE suppression", "setting": "[4]; [5]", "result": "approximately 1000 ng/mL"}, {"measurement": "GNX plasma concentration at the time of seizure relapse", "setting": "[4]; Subject 004-101", "result": "< 500", "unit": "ng/mL"}, {"measurement": "GNX plasma concentration at the time of seizure relapse", "setting": "[4]; Subject 006-101", "result": "< 500", "unit": "ng/mL"}, {"measurement": "GNX plasma concentration at the time of seizure relapse", "setting": "[4]; Subject 006-102", "result": "< 500", "unit": "ng/mL"}, {"measurement": "duration seizure protection was maintained", "setting": "subjects with SE; 1 subject, amended protocol", "result": 48, "unit": "h"}, {"measurement": "time to RSE cessation after starting IV GNX infusion", "setting": "subjects with SE; 1 subject, amended protocol, Captisol 50 g/day, NCSE due to tumor", "result": "≤ 3", "unit": "min"}, {"measurement": "seizure relapse on weaning off GNX", "setting": "subjects with SE; 1 subject, amended protocol, listed as GNX", "result": "no seizure relapse; also recorded: without seizure relapse"}, {"measurement": "EEG response after start of GNX", "setting": "subjects with SE; Subject 004-101, 30 mg bolus, 85 mg/hr", "result": "Almost immediately the EEG showed seizure suppression"}, {"measurement": "time of seizure relapse post infusion start", "setting": "subjects with SE; Subject 004-101, at 20 mg/hr", "result": "approximately 5 hours"}, {"measurement": "time at which additional intervention was required post-dose initiation", "setting": "subjects with SE; Subject 004-102", "result": "approximately 42.5 hours"}, {"measurement": "seizure activity on EEG", "setting": "subjects with SE; Subject 004-102, 60 minutes and 2 hours post-dose initiation", "result": "no seizure activity"}, {"measurement": "time of return of concerning EEG pattern post-dose initiation", "setting": "subjects with SE; Subject 004-102, at 20 mg/hr", "result": "5 to 6", "unit": "h"}, {"measurement": "time to SE abort after bolus administration", "setting": "subjects with SE; Subject 006-101", "result": "≤ 1", "unit": "min"}, {"measurement": "seizure activity on EEG", "setting": "subjects with SE; Subject 006-101, 60 minutes and 2 hours post-dose initiation", "result": "no seizure activity"}, {"measurement": "time of seizure relapse post infusion start", "setting": "subjects with SE; Subject 006-101, at 20 mg/hr", "result": "approximately 6 hours"}, {"measurement": "effect of bolus on SE", "setting": "subjects with SE; Subject 006-102", "result": "SE aborted upon administration of the bolus"}, {"measurement": "seizure activity on EEG", "setting": "subjects with SE; Subject 006-102, 60 minutes, 2 hours and 4 hours post-dose initiation", "result": "no seizure activity"}, {"measurement": "time of seizure relapse post infusion start", "setting": "subjects with SE; Subject 006-102, at 20 mg/hr", "result": "approximately 6 hours"}, {"measurement": "seizure return during treatment", "setting": "subjects with SE; Subject 015-101, focal convulsive SE", "result": "Seizures did not return during the treatment period"}, {"measurement": "effect of initial bolus plus continuous infusion on seizures/SE (EEG)", "setting": "subjects with SE; all 5 subjects, 30 mg bolus, 85 mg/hr 2 h then 40 mg/hr 2 h, listed as GNX", "result": "immediate cessation of seizures; also recorded: immediate cessation of SE"}, {"measurement": "subjects with seizure activity relapse when plasma GNX decreased <500 ng/mL", "setting": "subjects with SE; original protocol, Captisol 35 g/day", "result": "4 out of 5"}]}]}
